In patent US12715849B2, “Herbicidal tetrazole compounds” (SYNGENTA CROP PROTECTION AG, priority 2020, dated 2026):

Tests used:
Assay type in all cases: in vivo
[1] = tested on: Ipomoea hederacea (IPOHE); assay: Glasshouse herbicidal test, pre- and post-emergence (Table B1); conditions: 130 g/h, evaluated after 13 days; for percentage damage caused to the plant, POST Application IPOHE: post-emergence; for percentage damage caused to the plant, PRE Application IPOHE: pre-emergence
Experimental: (§1) Seeds of a variety of test species are sown in standard soil in pots (Lolium perenne (LOLPE), Amaranthus retoflexus (AMARE), Amaranthus palmeri (AMAPA), Ablution theophrasti (ABUTH), Setaria faberi (SETFA), Echinochloa crus-galli (ECHCG), Ipomoea hederacea (IPOHE)). After cultivation for one day (pre-emergence) or after 8 days cultivation (post-emergence) under controlled conditions in a glasshouse (at 24/16° C., day/night; 14 hours light; 65% humidity), the plants are sprayed with an aqueous spray solution derived from the formulation of the technical active ingredient in acetone/water (50:50) solution containing 0.5% Tween 20 (polyoxyethelyene sorbitan monolaurate, CAS RN 9005-64-5). Compounds are applied at 130 g/h unless otherwise indicated. The test plants are then grown in a glasshouse under controlled conditions in a glasshouse (at 24/16° C., day/night; 14 hours light; 65% humidity) and watered twice daily. After 13 days for pre and post-emergence, the test is evaluated for the percentage damage caused to the plant. The biological activities are shown in the following table on a five-point scale (5=80-100%; 4=60-79%; 3=40-59%; 2=20-39%; 1=0-19%).

[2] = tested on: Echinochloa crus-galli (ECHCG); assay: as above; conditions: 130 g/h, evaluated after 13 days; for percentage damage caused to the plant, POST Application ECHCG: post-emergence; for percentage damage caused to the plant, PRE Application ECHCG: pre-emergence
Experimental: as §1

[3] = tested on: Amaranthus retoflexus (AMARE); assay: as above; conditions: 130 g/h, evaluated after 13 days; for percentage damage caused to the plant, POST Application AMARE: post-emergence; for percentage damage caused to the plant, PRE Application AMARE: pre-emergence
Experimental: as §1

[4] = tested on: Ablution theophrasti (ABUTH); assay: as above; conditions: 130 g/h, evaluated after 13 days
Experimental: as §1

[5] = tested on: Amaranthus palmeri (AMAPA); assay: as above; conditions: 130 g/h, evaluated after 13 days; for percentage damage caused to the plant, POST Application AMAPA: post-emergence; for percentage damage caused to the plant, PRE Application AMAPA: pre-emergence
Experimental: as §1

Setaria faberi (SETFA) = assay: as above; conditions: 130 g/h, evaluated after 13 days; for percentage damage caused to the plant, POST Application SETFA: post-emergence; for percentage damage caused to the plant, PRE Application SETFA: pre-emergence
Experimental: as §1

[6] = tested on: AMARE (Amaranthus retoflexus); assay: Comparative test, pre-emergence (Table B2); conditions: after 14 days
[7] = tested on: IPOHE (Ipomoea hederacea); assay: Comparative test, pre-emergence (Table B2); conditions: after 14 days
SETFA (Setaria faberi) = assay: Comparative test, pre-emergence (Table B2); conditions: after 14 days
[8] = tested on: ECHCG (Echinochloa crus-galli); assay: Comparative test, pre-emergence (Table B2); conditions: after 14 days

Structure (SMILES) | percentage damage caused to the plant, POST Application IPOHE [1] | percentage damage caused to the plant, PRE Application IPOHE [1] | percentage damage caused to the plant, POST Application ECHCG [2] | percentage damage caused to the plant, PRE Application ECHCG [2] | percentage damage caused to the plant, POST Application AMARE [3] | percentage damage caused to the plant, PRE Application AMARE [3] | percentage damage caused to the plant, POST Application ABUTH ([4]; post-emergence) | percentage damage caused to the plant, PRE Application ABUTH ([4]; pre-emergence) | percentage damage caused to the plant, POST Application AMAPA [5] | percentage damage caused to the plant, PRE Application AMAPA [5] | percentage damage caused to the plant, POST Application SETFA (Setaria faberi (SETFA)) | percentage damage caused to the plant, PRE Application SETFA (Setaria faberi (SETFA)) | damage to plant (100 = total damage; 0 = no damage), PRE Application AMARE ([6]; rate 31 g/ha) | damage to plant (100 = total damage; 0 = no damage), PRE Application AMARE ([6]; rate 130 g/ha) | damage to plant (100 = total damage; 0 = no damage), PRE Application IPOHE ([7]; rate 31 g/ha) | damage to plant (100 = total damage; 0 = no damage), PRE Application IPOHE ([7]; rate 130 g/ha) | damage to plant (100 = total damage; 0 = no damage), PRE Application SETFA (SETFA (Setaria faberi); rate 31 g/ha) | damage to plant (100 = total damage; 0 = no damage), PRE Application SETFA (SETFA (Setaria faberi); rate 130 g/ha) | damage to plant (100 = total damage; 0 = no damage), PRE Application ECHCG ([8]; rate 31 g/ha) | damage to plant (100 = total damage; 0 = no damage), PRE Application ECHCG ([8]; rate 130 g/ha)
CCS(=O)(=O)Nc1c(OC(F)F)ccc(C(=O)Nc2nnnn2C)c1Cl [Compound 1.064] | 4 (4=60-79%) | 2 (2=20-39%) | 5 (5=80-100%) | 5 (5=80-100%) | 5 (5=80-100%) | 5 (5=80-100%) | 5 (5=80-100%) | 5 (5=80-100%) | 5 (5=80-100%) | 5 (5=80-100%) | 5 (5=80-100%) | 4 (4=60-79%) | – | – | – | – | – | – | – | –
Cc1c(C(=O)Nc2nnnn2C)ccc(OC(F)(F)F)c1NS(C)(=O)=O [Compound 1.075] | 5 (5=80-100%) | 3 (3=40-59%) | 5 (5=80-100%) | 5 (5=80-100%) | 5 (5=80-100%) | 5 (5=80-100%) | – | – | – | 5 (5=80-100%) | 5 (5=80-100%) | 4 (4=60-79%) | 80 | 100 | 40 | 50 | 30 | 60 | 60 | 90
CCS(=O)(=O)Nc1c(OC(F)(F)F)ccc(C(=O)Nc2nnnn2C)c1C [Compound 1.081] | 5 (5=80-100%) | 3 (3=40-59%) | 5 (5=80-100%) | 5 (5=80-100%) | 5 (5=80-100%) | 5 (5=80-100%) | – | – | 5 (5=80-100%) | 5 (5=80-100%) | 5 (5=80-100%) | 5 (5=80-100%) | 90 | 100 | 40 | 50 | 20 | 80 | 60 | 90
